Data from patent EP1117659B1, “SUBSTITUTED 3-CYANOQUINOLINES AS PROTEIN TYROSINE KINASES INHIBITORS” (Wyeth Holdings Corporation, priority 1998, dated 2000).
In brackets after ≈: the same amount, converted by molar mass. Several values for one entry are separate records, joined by “and”; a condition that tells them apart may be missing. Equal entries are not always repeated. Where two headings read alike, the source gives them in different places.

Tests used:
3T3/c-erbb2 = assay: Inhibition of Cancer Cell Growth as Measured by Cell Number (Sulforhodamine B); type: cell-based; details: 48 hours exposure
Description: (§1) Human tumor cell lines were plated in 96-well plates (250 µl/well, 1-6 x 10^4 cells/ml) in RPMI 1640 medium, containing 5% FBS (Fetal Bovine Serum). […] After 48 hours exposure to test compounds, cells were fixed with trichloroacetic acid, and stained with Sulforhodamine B. After washing with trichloroacetic acid, bound dye was solubilized in 10 mM Tris base and optical density was determined using plate reader. Under conditions of the assay the optical density is proportional to the number of cells in the well. […] The test procedure is described in details by Philip Skehan et. al, J.Natl. Canc. Inst., 82, 1107-1112 (1990). […] Information about some of the cell lines used in these test procedures is available from the American Type Tissue Collection: Cell Lines and Hybridomas, 1994 Reference Guide, 8th Edition.

3T3 = assay: as above; type: cell-based; details: Mus musculus, NIH3T3; 48 hours exposure
Description: as §1

[1] = target: T1, Kinase insert Domain containing Receptor (KDR: the catalytic domain of the VEGF receptor) (Homo sapiens, UniProt P35968); assay: Inhibition of Kinase insert Domain containing Receptor (KDR), radioactive phosphorylation of Glu:Tyr copolymer; type: biochemical; details: IC50, substrate phosphorylation
T1 construct: KDR: the catalytic domain of the VEGF receptor
T1 sequence (P35968 834-1162 limits assumed): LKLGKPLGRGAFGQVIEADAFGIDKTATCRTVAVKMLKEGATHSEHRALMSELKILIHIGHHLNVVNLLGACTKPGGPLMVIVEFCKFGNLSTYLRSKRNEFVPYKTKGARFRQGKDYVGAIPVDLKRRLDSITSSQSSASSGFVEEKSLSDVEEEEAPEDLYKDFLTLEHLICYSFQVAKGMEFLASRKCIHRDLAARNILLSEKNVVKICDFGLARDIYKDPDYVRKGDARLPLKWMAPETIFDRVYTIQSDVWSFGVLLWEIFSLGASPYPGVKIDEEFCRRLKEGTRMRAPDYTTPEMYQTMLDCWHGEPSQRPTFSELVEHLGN
Description: In this standard pharmacological test procedure, KDR protein is mixed, in the presence or absence of a inhibitor compound, with a substrate peptide to be phosphorylated (a copolymer of glutamic acid and tyrosine, E:Y :: 4:1) and other cofactors such as Mg^++ and sodium vanadate (a protein tyrosine phosphatase inhibitor) in an appropriate buffer to maintain pH (7.2). ATP and a radioactive tracer (either P^32- or P^33- labeled ATP) is then add to initiate phosphorylation. After incubation, the radioactive phosphate associated with the acid-insoluble fraction of the assay mixture is then quantified as reflection of substrate phosphorylation. […] Multiple entries for a given compound indication it was tested multiple times.

MDA-MB-435 = assay: Inhibition of Cancer Cell Growth as Measured by Cell Number (Sulforhodamine B); type: cell-based, Human; details: Homo sapiens, MDA-MB-435, 48 h, 48 hours exposure
Description: as §1

SK-BR3 = assay: as above; type: cell-based, Human; details: Homo sapiens, SK-BR-3, 48 h, 48 hours exposure
Description: as §1

SW620 = assay: as above; type: cell-based, Human; details: Homo sapiens, SW-620, 48 h, 48 hours exposure
Description: as §1

A431 = assay: as above; type: cell-based, Human; details: Homo sapiens, A-431, 48 h, 48 hours exposure
Description: as §1

[2] = target: Recombinant human MEK 1 (MAPKK) / recombinant human ERK2 (MAPK) (Mek-Erk) (Homo sapiens, UniProt P28482+Q02750); assay: Mitogen Activated Protein Kinase (MAPK) assay, two component coupled Mek-Erk test; type: biochemical
Chain of Recombinant human MEK 1 (MAPKK) / recombinant human ERK2 (MAPK) (Mek-Erk) (P28482 2-360): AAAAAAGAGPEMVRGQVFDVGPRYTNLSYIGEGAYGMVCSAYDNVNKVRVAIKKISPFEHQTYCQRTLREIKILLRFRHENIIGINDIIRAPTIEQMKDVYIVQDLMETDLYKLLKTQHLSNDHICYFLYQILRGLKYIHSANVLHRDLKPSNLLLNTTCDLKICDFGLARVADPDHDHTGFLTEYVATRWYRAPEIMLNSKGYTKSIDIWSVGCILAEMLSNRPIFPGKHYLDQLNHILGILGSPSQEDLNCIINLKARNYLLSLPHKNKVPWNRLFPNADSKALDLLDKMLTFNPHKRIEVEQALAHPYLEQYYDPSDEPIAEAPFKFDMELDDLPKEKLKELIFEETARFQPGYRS
Chain of Recombinant human MEK 1 (MAPKK) / recombinant human ERK2 (MAPK) (Mek-Erk) (Q02750 whole entry): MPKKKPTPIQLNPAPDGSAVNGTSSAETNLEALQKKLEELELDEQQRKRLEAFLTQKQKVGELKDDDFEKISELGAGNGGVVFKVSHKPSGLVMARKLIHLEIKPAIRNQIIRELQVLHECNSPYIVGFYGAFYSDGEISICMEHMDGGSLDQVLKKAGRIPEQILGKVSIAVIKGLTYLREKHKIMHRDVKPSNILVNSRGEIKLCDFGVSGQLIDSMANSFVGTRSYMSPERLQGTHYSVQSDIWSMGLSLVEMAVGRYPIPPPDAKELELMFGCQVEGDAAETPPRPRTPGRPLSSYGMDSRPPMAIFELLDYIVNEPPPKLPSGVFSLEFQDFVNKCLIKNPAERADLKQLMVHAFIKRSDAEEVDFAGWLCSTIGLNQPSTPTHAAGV

[3] = target: Epithelial Cell Kinase (ECK) (Homo sapiens, UniProt P29317); assay: Inhibition of Epithelial Cell Kinase (ECK), immobilized biotinylated peptide, HRP anti-phosphotyrosine readout; type: biochemical; details: IC50, substrate phosphorylation
Chain of Epithelial Cell Kinase (ECK) (P29317 24-976, species assumed): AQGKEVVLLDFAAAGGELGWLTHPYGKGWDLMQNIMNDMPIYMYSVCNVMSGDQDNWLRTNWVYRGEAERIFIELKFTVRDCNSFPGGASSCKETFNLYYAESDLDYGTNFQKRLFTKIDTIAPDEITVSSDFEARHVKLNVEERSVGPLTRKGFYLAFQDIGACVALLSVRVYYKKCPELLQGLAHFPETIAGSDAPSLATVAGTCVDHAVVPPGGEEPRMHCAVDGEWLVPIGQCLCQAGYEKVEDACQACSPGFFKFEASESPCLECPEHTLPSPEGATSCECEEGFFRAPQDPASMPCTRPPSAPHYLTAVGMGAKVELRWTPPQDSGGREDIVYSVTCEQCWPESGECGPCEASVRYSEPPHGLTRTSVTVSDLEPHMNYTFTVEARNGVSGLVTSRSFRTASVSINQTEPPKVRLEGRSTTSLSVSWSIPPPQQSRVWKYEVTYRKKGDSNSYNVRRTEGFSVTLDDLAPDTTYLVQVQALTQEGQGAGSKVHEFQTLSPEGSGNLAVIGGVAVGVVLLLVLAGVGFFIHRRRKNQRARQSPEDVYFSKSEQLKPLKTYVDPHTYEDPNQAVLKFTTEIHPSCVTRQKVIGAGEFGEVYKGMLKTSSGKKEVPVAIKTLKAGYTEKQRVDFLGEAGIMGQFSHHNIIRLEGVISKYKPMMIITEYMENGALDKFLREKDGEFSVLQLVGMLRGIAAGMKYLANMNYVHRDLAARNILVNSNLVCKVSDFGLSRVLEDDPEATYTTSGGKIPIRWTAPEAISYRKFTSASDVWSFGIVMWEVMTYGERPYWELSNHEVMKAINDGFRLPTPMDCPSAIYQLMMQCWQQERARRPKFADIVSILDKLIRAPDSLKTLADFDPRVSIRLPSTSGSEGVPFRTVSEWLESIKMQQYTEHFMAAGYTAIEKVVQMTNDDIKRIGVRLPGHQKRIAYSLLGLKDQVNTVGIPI
Description: In this standard pharmacological test procedure, a biotinylated peptide substrate is first immobilized on neutravidin-coated microtiter plates. The test drug, the Epithelial Cell Kinase (ECK), Mg^++, sodium vanadate (a protein tyrosine phosphatase inhibitor), and an appropriate buffer to maintain pH (7.2) are then added to the immobilized substrate-containing microtiter wells. ATP is then added to initiate phosphorylation. After incubation, the assay plates are washed with a suitable buffer leaving behind phosphorylated peptide which is exposed to horse radish peroxidase (HRP)-conjugated anti-phosphotyrosine monoclonal antibody. The antibody-treated plates are washed again and the HRP activity in individual wells is quantified as a reflection of degree of substrate phosphorylation. […] Multiple entries for a given compound indication it was tested multiple times.

[4] = target: T2, epidermal growth factor receptor kinase (EGF-R Kinase, recombinant enzyme; His-tagged cytoplasmic domain of EGFR) (Homo sapiens, UniProt P00533); assay: Inhibition of Epidermal Growth Factor Receptor Kinase (EGF-R) using recombinant enzyme, RR-SRC peptide phosphorylation, 33P-ATP; type: biochemical; details: for inhibition at 0.5 µM: read-out: %Inh @ 0.5 µM; for IC50: recombinant enzyme, 90 min at room temperature
T2 construct: EGFR cDNA encoding amino acids 645 - 1186 preceded by Met-Ala-(His)6; Met-Ala-(His)6 (N); made in house; host or cells: Sf9 insect cells, recombinant baculovirus vHcEGFR52
T2 sequence (P00533 669-1210): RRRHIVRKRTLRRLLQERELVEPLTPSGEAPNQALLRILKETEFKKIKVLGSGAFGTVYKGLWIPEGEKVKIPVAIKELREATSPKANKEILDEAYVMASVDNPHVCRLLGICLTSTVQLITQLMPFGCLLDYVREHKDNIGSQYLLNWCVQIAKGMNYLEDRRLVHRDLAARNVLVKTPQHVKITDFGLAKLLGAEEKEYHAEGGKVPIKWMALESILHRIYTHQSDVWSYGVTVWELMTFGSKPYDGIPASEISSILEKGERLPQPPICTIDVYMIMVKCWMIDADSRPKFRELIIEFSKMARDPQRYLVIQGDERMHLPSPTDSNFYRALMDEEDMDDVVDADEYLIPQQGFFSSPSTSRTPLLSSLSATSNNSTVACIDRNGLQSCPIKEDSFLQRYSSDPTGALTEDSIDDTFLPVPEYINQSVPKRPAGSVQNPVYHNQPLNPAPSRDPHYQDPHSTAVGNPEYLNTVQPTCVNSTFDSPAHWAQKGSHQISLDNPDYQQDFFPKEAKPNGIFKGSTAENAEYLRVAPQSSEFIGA
Description: Representative test compounds were evaluated for their ability to inhibit the phosphorylation of the tyrosine residue of a peptide substrate catalyzed by the enzyme epidermal growth factor receptor kinase. The peptide substrate (RR-SRC) has the sequence arg-arg-leu-ile-glu-asp-ala-glu-tyr-ala-ala-arg-gly. The enzyme used in this test procedure is the His-tagged cytoplasmic domain of EGFR. A recombinant baculovirus (vHcEGFR52) was constructed containing the EGFR cDNA encoding amino acids 645 - 1186 preceded by Met-Ala-(His)6. Sf9 cells in 100 mm plates were infected at an moi of 10 pfu/cell and cells were harvested 48 h post infection. A cytoplasmic extract was prepared using 1% Triton X-100 and applied to Ni-NTA column. After washing the column with 20 mM imidazole, HcEGFR was eluted with 250 mM imidazole (in 50 mM Na2HPO4, pH 8.0, 300 mM NaCl). Fractions collected were dialyzed against 10 mM HEPES, pH 7.0, 50 mM NaCl, 10% glycerol, lug/mL antipain and leupeptin and 0.1 mM Pefabloc SC. The protein was frozen in dry ice/methanol and stored -70°C.
Test compounds were made into 10 mg/mL stock solutions in 100% dimethylsulfoxide (DMSO). Prior to experiment, stock solutions were diluted to 500 uM with 100% DMSO and then serially diluted to the desired concentration with HEPES buffer (30 mM HEPES pH 7.4).
For the enzyme reaction, 10 uL of each inhibitor (at various concentrations) were added to each well of a 96-well plate. To this was added 3 uL of enzyme (1:10 dilution in 10mM HEPES, pH 7.4 for final cone. of 1:120). This was allowed to sit for 10 min on ice and was followed by the addition of 5 ul peptide (80 uM final cone.), 10ul of 4X Buffer (Table A), 0.25 uL ^33P-ATP and 12 uL H2O. The reaction was allowed to run for 90 min at room temperature and was followed by spotting the entire volume on to precut P81 filter papers. The filter discs were washed 2X with 0.5% phosphoric acid and radioactivity was measured using a liquid scintillation counter.
The inhibition data for representative compounds of the invention are shown below in TABLE 1. […] The % inhibition of the test compound was determined for at least three different concentrations and the IC50 value was evaluated from the dose response curve. […] CPM(control) is in units of counts per minute and was a number expressing the amount of radiolabled ATP (γ-^33P) incorporated into the RR-SRC peptide substrate by the enzyme after 90 minutes at room temperature in the absence of test compound as measured by liquid scintillation counting. The CPM values were corrected for the background counts produced by ATP in the absence of the enzymatic reaction. […]

Row | SMILES | IC50 (3T3/c-erbb2) [µg/mL] | IC50 (3T3) [µg/mL] | IC50 [1] | IC50 (MDA-MB-435) [µg/mL] | IC50 (SK-BR3) [µg/mL] | IC50 (SW620) [µg/mL] | IC50 (A431) [µg/mL] | IC50 ([2]; read-out: Mek-Erk µM) [µM] | IC50 [3] [µM] | inhibition at 0.5 µM [4] [%] | IC50 [4] [µM] | IC50 ([2]; read-out: Mek-Erk) [µM]
1 | CCOc1cc2ncc(C#N)c(Nc3ccc4[nH]c(=O)oc(=O)c4c3)c2cc1OCC [Example 109, 4-(2,4-Dioxo-1,4-dihydro-2H-benzo[d][1,3]oxazin-6-ylamino)-6,7-diethoxy-quinoline-3-carbonitrile] | 4.62 (≈ 11 µM) | > 5 | 23.9 µM | > 5 | > 5 | 2.92 (≈ 6.98 µM) | > 5 | > 100 | > 47.8 | – | – | –
2 | CCOc1cc2ncc(C#N)c(Nc3ccc4c(c3)C(=O)OC4)c2cc1OCC [Example 111, 6,7-Diethoxy-4-(3-oxo-1,3-dihydro-isobenzofuran-5-ylamino)-quinoline-3-carbonitrile] | 3.3 (≈ 8.48 µM) | > 5 | > 77 µM | 3.4 (≈ 8.74 µM) | > 5 | 1.56 (≈ 4.02 µM) | > 5 | > 100 | > 51.4 | 10 | > 1 | –
3 | CCOc1cc2ncc(C#N)c(Nc3ccc4c(c3)S(=O)(=O)C=C4)c2cc1OCC [Example 112, 4-(1,1-Dioxo-1H-benzo[b]thiophen-6-ylamino)-6,7-diethoxy-quinoline-3-carbonitrile] | 0.251 (≈ 0.596 µM) | 0.392 (≈ 0.93 µM) | > 71.2 µM | 0.0033 (≈ 0.00783 µM) | 0.336 (≈ 0.797 µM) | 0.146 (≈ 0.346 µM) | 0.257 (≈ 0.61 µM) | – | > 47.5 | – | – | > 100
4 | CCOc1cc2ncc(C#N)c(Nc3ccc4cn[nH]c4c3)c2cc1OC [Example 115, 7-Ethoxy-4-(indazol-6-ylamino)-6-methoxy-quinoline-3-carbonitrile] | 0.0267 (≈ 0.0743 µM) | 0.344 (≈ 0.957 µM) | 5.56 µM and > 2.78 µM | 0.0359 (≈ 0.0999 µM) | 0.022 (≈ 0.0612 µM) | 0.0212 (≈ 0.059 µM) | 0.0368 (≈ 0.102 µM) | – | > 27.8 | 49 | > 0.5 | 25
5 | CCOc1cc2c(Nc3ccc4cn[nH]c4c3)c(C#N)cnc2cc1OC [Example 126, 6-Ethoxy-4-(1H-indazol-6-ylamino)-7-methoxyquinoline-3-carbonitrile] | 4.8 (≈ 13.4 µM) | 3.22 (≈ 8.96 µM) | 8.36 µM and > 2.79 µM | 2.63 (≈ 7.31 µM) | 2.09 (≈ 5.83 µM) | 4.31 (≈ 12 µM) | 0.786 (≈ 2.19 µM) | – | > 27.9 | – | 0.45 | > 100
6 | CCOc1cc2ncc(C#N)c(Nc3ccc4c(c3)C(=O)NCC(=O)N4C)c2cc1OCC [Example 127, 6,7-Diethoxy-4-(1-methyl-2,5-dioxo-2,3,4,5-tetrahydro-1H-benzo[e][1,4]diazepin-7-ylamino)-quinoline-3-carbonitrile] | > 5 | > 5 | > 67.3 µM | > 5 | > 5 | > 5 | > 5 | – | > 44.9 | 25 | > 1 | > 100
